The target in the test is Neuronal acetylcholine receptor subunit alpha-7 (Rattus norvegicus, UniProt Q05941). Briefly: Binding affinity of Norditerpenoid Alkaloids at rat neuronal alpha7-type nicotinic acetylcholine receptor.

Here are results for nine molecules from ChEMBL document CHEMBL1129749, “Nudicauline and elatine as potent norditerpenoid ligands at rat neuronal alpha-bungarotoxin binding sites: importance of the 2-(methylsuccinimido)benzoyl moiety for neuronal nicotinic acetylcholine receptor binding” (J Med Chem, 1996).

SMILES strings stand for the structures.

Chain of Neuronal acetylcholine receptor subunit alpha-7 (Q05941 whole entry): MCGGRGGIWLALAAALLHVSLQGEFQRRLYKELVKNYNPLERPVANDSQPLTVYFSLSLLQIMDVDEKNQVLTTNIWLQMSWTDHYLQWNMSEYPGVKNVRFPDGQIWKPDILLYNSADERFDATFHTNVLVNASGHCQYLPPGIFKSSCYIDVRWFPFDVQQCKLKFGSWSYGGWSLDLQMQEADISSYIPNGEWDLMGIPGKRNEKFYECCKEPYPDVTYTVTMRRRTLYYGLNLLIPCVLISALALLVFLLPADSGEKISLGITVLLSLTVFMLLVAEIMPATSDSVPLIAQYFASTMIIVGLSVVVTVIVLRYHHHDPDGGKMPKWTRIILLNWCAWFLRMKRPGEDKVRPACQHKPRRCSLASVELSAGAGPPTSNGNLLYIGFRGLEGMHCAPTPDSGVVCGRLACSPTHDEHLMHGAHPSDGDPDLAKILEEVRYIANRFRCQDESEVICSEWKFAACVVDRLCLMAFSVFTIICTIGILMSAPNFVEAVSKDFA

`CCN1C[C@]2(OC(=O)c3ccccc3N)CC[C@H](OC)[C@]34C1[C@@H](CC23)[C@@]1(O)C[C@H](OC)[C@H]2CC4[C@]1(O)[C@H]2OC` (some centres undefined) had an IC50 of 6.8 µM. Under `CCN1C[C@]2(OC(=O)c3ccccc3NC(C)=O)CC[C@H](OC)[C@@]34[C@@H]2C[C@@H]([C@@H]13)[C@@]1(O)C[C@H](OC)[C@H]2C[C@@H]4[C@]1(O)[C@H]2OC` stands 96 µM; under `CCN1C[C@]2(COC)CC[C@H](O)[C@@]34C5C[C@@H]6[C@@H](OC)C[C@](O)(C(CC23)C14)C5[C@H]6OC(C)=O` (some centres undefined) [CONDELPHINE], 1.6 µM. Under `CCN1C[C@]2(COC)CC[C@H](OC)[C@]34C5C[C@@H]6[C@@H](OC)C[C@@]7(OCO[C@@]7(C13)[C@@H](O)C24)C5[C@H]6OC` (some centres undefined) [DELCORINE] stands 53 µM; under `CCN1C[C@]2(COC)CC[C@H](O)[C@]34C1[C@@](O)([C@@H](OC)[C@H]23)[C@@]1(O)C[C@H](OC)[C@H]2C[C@@H]4[C@@H]1[C@H]2OC` [DELSOLINE], 19 µM. For the molecule `CCN1C[C@]2(C)CC[C@H](OC)[C@@]34C1[C@]1(OCO[C@@]15C[C@H](OC)[C@H]1C[C@]3(O)[C@@H]5[C@H]1OC)[C@@H](OC(C)=O)[C@H]24` [DELTALINE], the half-inhibitory concentration (IC50) came to 110 µM. Next, `CCN1C[C@]2(COC(=O)c3ccccc3N3C(=O)C[C@H](C)C3=O)CC[C@H](OC)[C@@]34C1[C@@]1(OCO[C@@]15C[C@H](OC)[C@H]1C[C@@H]3[C@@H]5[C@H]1OC)[C@@H](OC)[C@H]24` [ELATINE]: 0.0061 µM; `CCN1C[C@]2(CO)CC[C@H](OC)[C@@]34[C@@H]5C[C@H]6[C@H](OC)[C@@H]5[C@](O)(C[C@@H]6OC)[C@](O)([C@@H](OC)[C@H]23)[C@@H]14` [LYCOCTONINE]: 10 µM. On to `CCN1C[C@]2(COC(=O)c3ccccc3N3C(=O)C[C@H](C)C3=O)CC[C@H](OC)[C@]34C5C[C@@H]6[C@@H](OC)C[C@@](O)(C5[C@H]6OC(C)=O)[C@](O)(C13)[C@@H](OC)C24` (some centres undefined) [NUDICAULINE], for which the IC50 was 0.0017 µM.

One may read the IC50 as the midpoint of a concentration-inhibition curve.
